Test results taken from patent publication US12268739B2, “Use of toll-like receptor 2 (TLR-2) agonist for modulating human immune response” (Children's Medical Center Corporation, priority 2018, dated 2025).
“Also recorded” adds a separate entry of the source.

Tests used:
[1] = test system: NF-κB reporter THP1 cells; assay: NF-kB-induced luminescence HTS in THP1-Lucia cells (384-well); assay type: cell-based, human; conditions: ranked at 3.3 μM; ~200,000 compounds tested; listed as 080
From the text: HTS Overview: To identify immunomodulators/adjuvants that robustly activate human immune cells, ˜200,000 small molecules were screening in a THP1 cell-based assay. The chemical libraries screened included known bioactive and commercial libraries from various sources including commercial libraries such as ChemDiv, ChemBridge, and Asinex. All libraries were owned and provided by the Institute of Chemistry and Cell Biology (ICCB)—Longwood (Harvard Medical School). The project primary screen incorporated two distinct arms: a) a luciferase-based screen which corresponds to the relative activation of the NF-κB reporter; and b) a fluorescence-based screen, corresponding to the phenotypic adherence, a distinct marker of cell activation, of the human monocytic THP-1 cell lines. Described herein are small molecules identified in the screen that induce NF-kB activity based on a luciferase-based THP-1 cell screen.
THP-1 Cell Line and Culture Conditions. The THP1-Lucia™ cell line was obtained from Invivogen (San Diego, CA). THP1-Lucia cells, which are human monocytic cells derived from the blood of a child with leukemia, contain an NF-kB-inducible Luc reporter construct. This allows NF-kB activation to be measured by quantifying the luminescence from the secreted luciferase enzyme. THP1-Lucia cells were cultured in RPMI 1640 supplemented with 10% non-heat inactivated fetal bovine serum (FBS), 10 mM HEPES, 1.0 mM sodium pyruvate, 50 ug/ml Pen-Strep, and 100 ug/mL Normocin™. Once cultured, the cells were stored in a 37° C. incubator with 5% CO2 and a humidified atmosphere. Cells were passaged every 2-3 days and not allowed to exceed a concentration of 2.0×10^6 cells/ml media.
NF-kB-induced Luminescence Assay. THP1-Lucia cells between passage 15 and 18 and suspended in culture medium were dispensed into 384-well black clear-bottom plates (Corning 3712) at 30,000 cells/30 μl/well using a Combi liquid dispenser. To allow comparison to a benchmark small molecule with known immune stimulating activity, cells at the same concentration were stimulated with 50 μM R848, a TLR7/8 agonist, in 0.3% DMSO and added to every other well of column 24, which was left empty of cells, by multichannel pipette at the same volume. Five μl of 700 nM Phorbol myristate acetate (PMA) in THP1 culture media and 2.3% DMSO, a known peripheral blood cell mitogen, was added to every other well of column 23 by multichannel pipette (final concentration in well: 100 nM in 0.3% DMSO). Five μl of THP1 culture media with 2.3% DMSO was added to the remaining wells of column 23 by multichannel pipette (final concentration 0.3% DMSO). One hundred nl aliquots of library compounds diluted in 100% DMSO were transferred from their original 384-well plates to the assay plates using a Seiko pin transfer machine. Each library plate was pinned in duplicate, yielding two assay plates with identical conditions for comparison. Plates were then incubated for 24 hours at 37 C with 5% CO2 in humid conditions. Following incubation, 10 μL of supernatant was removed from each well and transferred to a white plate (Corning 3570) using a Vprep liquid transfer machine. 10 μL of recombinant Lucia protein (Invivogen) diluted 1:2000 in THP1 culture media was added to empty well 24P. Using a Combi liquid dispenser, 50 μL/well of Quanti-Luc substrate (Invivogen) diluted 1:3 in sterile water was added to the assay plate. Immediately after adding the substrate, the luminescence was read using a PerkinElmer Envision plate reader.

human adult PBMCs = assay: Cytokine production by stimulated human adult PBMCs (ELISA / multiplex); assay type: cell-based
Description: ELISAs and Multiplex-Analyte Assays. Supernatants derived from human PBMCs stimulations were assayed by ELISA for TNF and IL-6 (ThermoFisher Scientific; Waltham, MA, USA). Cytokine and chemokine expression profiles (e.g., IFNγ, IL-9, IL-10, IL-12 (p70), IL-13, IL-1β, IL-23, IL-27, IL-28A, IL-33, IL-6, MIP-3α/CCL20, and TNF) in cell culture supernatants were measured using a customized Milliplex® Human Th17 Magnetic Bead Panel according to the manufacturer's instructions (Millipore, Chicago, IL, USA). Assays were read and analyzed on the Luminex® 100/200TM System and xPOTENT® software (Luminex, Austin, TX). A minimum threshold was set at the minimum detectable concentration for each individual assay, defined as three standard deviations above the mean background.
PBMCs were isolated from blood using a Ficoll density gradient. PBMCs either used fresh or were stored at 5×10^7 cells per vial in 1 mL RPMI containing 20% autologous plasma and 10% DMSO at −80° C. until use. […] PBMCs isolated from human adult donors or THP1-NF-κB cells were resuspended at a concentration of 10^5 cells/200 μl of RPMI supplemented with 10% of platelet-poor plasma or THP1 culture medium, respectively. […] After 24 hours of incubation (37° C., 5% CO2), plates were spun down (500×g, room temperature, 5 minutes) and supernatants were harvested for further analysis.

human TLR2 = biological target: T1, human TLR2 (Homo sapiens, UniProt O60603); assay: HEK-Blue human TLR cell screening (NF-κB SEAP reporter); assay type: cell-based; conditions: compounds at 10 μM, fold change over negative controls; listed as 080
T1 construct: expressed in transfected cells; host or cells: HEK-Blue (human embryonic kidney) cells with an NF-kB-inducible SEAP reporter
T1 sequence (O60603 21-784): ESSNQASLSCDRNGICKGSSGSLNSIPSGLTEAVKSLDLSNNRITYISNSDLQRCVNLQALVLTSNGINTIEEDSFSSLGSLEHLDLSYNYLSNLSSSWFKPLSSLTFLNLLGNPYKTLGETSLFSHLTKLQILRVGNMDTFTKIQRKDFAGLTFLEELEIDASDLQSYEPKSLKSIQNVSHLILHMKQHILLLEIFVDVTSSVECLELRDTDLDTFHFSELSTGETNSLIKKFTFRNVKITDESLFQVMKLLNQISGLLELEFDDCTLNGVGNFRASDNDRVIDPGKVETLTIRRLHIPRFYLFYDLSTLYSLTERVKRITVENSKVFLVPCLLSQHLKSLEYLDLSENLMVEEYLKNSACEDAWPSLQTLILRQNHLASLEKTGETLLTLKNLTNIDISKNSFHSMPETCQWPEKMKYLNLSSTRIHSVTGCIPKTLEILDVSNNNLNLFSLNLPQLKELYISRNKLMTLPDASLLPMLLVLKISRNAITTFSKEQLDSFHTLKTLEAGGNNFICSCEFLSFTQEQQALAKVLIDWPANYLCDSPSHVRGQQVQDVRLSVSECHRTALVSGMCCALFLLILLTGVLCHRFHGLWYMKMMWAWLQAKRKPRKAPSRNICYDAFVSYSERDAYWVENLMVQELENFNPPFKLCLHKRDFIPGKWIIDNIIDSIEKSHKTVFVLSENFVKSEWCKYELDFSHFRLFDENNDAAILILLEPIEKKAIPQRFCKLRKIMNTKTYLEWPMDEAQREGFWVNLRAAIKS
Description: HEK cell screening. Human embryonic kidney (HEK)-Blue cell lines expressing human TLRs (hTLRs) and a secreted embryonic alkaline phosphatase (SEAP) reporter under the control of an NF-κB-inducible promoter were cultured in 96-well plates (50,000-75,000 cells/200 μl/well) and stimulated with the indicated compounds at 10 µM or positive controls. The media added to the wells is designed for detection of NF-κB-induced SEAP expression. After 16-24 hours of incubation optical density (OD) was read at 650 nm on a Molecular Devices SpectraMax 340PC absorbance detector. Positive controls employed in this assay were: heat-killed Listeria monocytogenes (1×10^8 cells/ml) for hTLR2, Poly (I:C) HMW (1 μg/ml) for hTLR3, ? E. coli K12 LPS (100 ng/ml) for hTLR4, S. typhimurium flagellin (100 ng/ml) for hTLR5, CL307 (1 μg/ml) for hTLR7, CL075 (1 μg/ml) for hTLR8 and CpG ODN 2006 (1 μg/ml) for hTLR9.

[2] = human adult PBMCs, 24 hours, compounds at 100 µM (FIG. 7), ELISA, median

## CNC(=O)c1c(NC(=O)c2ccc(S(=O)(=O)N(C)C)cc2)sc2c1CCC2 [Compound 80]
[1]
  Efficacy in activating NF-κB in THP1 cells (screening hits): most effective NF-κB activators; also recorded: most effective NF-kB activators
Human adult PBMCs; 384 and 96 well assay
  Activation of human adult PBMCs: induced activation
Human adult PBMCs; 24 hours, 100 μM, ELISA
  Cytokine production (TNF and IL-6) from human adult PBMCs: induces cytokine production
Human adult PBMCs; [2]
  Adult PBMCs (median ng/ml) IL-6 (N = 7): 1.868 ng/mL
  Adult PBMCs (median ng/ml) TNFa (N = 13): 0.1958 ng/mL
Human TLR2
  Activation of human TLR2 (NF-κB activation in TLR-expressing HEK-Blue cells): activate human TLR2; also recorded: activated the human TLR2-expressing human embryonic kidney (HEK)-Blue cell line
